Drawing on patent US20170157135A1 (Novogen Limited, priority 2013, published 2017), this text covers IC50 for 15 compounds.

Holding throughout (type): cell-based
For experiment [1], the system named is SK-N-SH neuroblastoma cells. Put plainly: Anti-proliferative assay (cell-titre luminescent), SK-N-SH. The note with it: Homo sapiens, 72 hours, luminescence. The protocol: (§1) The ability of compounds 2002, 2009 and 2013-2064 to inhibit the proliferation of cancer cells representative of neuroblastoma, melanoma, prostate cancer, colorectal cancer, non-small cell lung carcinoma, and triple negative breast cancer was assessed. These studies were conducted by contract research (GVK-BIO). Briefly, a pre-determined number of cells as calculated from cell growth assays for each of the cell lines employed were seeded into their respective culture medium (using ATCC culture parameters—http://www.atcc.org) and cultured for 24 h at 37° C. and 5% CO2 in 96-well culture plates. Once attached, each cell line was then exposed to various concentrations of each respective analogue (30, 10, 3, 1, 0.3 and 0.1 μM), cultured for a further 72 hours and exposed to cell-titre luminescent reagent (100 μL/well) for a further 30 minutes). Luminescence was captured using an EnVision multilabel reader and the data for each analogue concentration compared against no treatment control. Cell viability was normalized to control (vehicle alone) and dose-response curves, and half maximal effective concentration (EC50) values were determined using Graph Pad Prism 6 (nonlinear regression sigmoidal dose-response variable slope).

For experiment [2], the system named is MDA-MB-231 breast cancer cells. Put plainly: Anti-proliferative assay (cell-titre luminescent), MDA-MB-231. The note with it: Homo sapiens; MDA-MB-231, 72 hours, luminescence. The protocol:
as §1

For experiment [3], the system named is CaCo2 colorectal cancer cells. Put plainly: Anti-proliferative assay (cell-titre luminescent), CaCo2. Conditions: Homo sapiens, Caco-2; CaCo2, 72 hours, luminescence. As for the experimental part: as §1
The test system of the next experiment is SK-Mel-28 melanoma cells. Put plainly: Anti-proliferative assay (cell-titre luminescent), SK-Mel-28. Conditions: Homo sapiens; SK-Mel-28, 72 hours, luminescence. The protocol:
as §1

A further experiment has as its system A549 lung (NSLC) cells. Description: Anti-proliferative assay (cell-titre luminescent), A549. The note with it: Homo sapiens; A549, 72 hours, luminescence. As for the experimental part:
as §1

Experiment [4] has as its system PC3 prostate cancer cells. Put plainly: Anti-proliferative assay (cell-titre luminescent), PC3. Conditions: PC3, 72 hours, luminescence. As for the experimental part:
as §1

For experiment [5], the system named is DU145 prostate cancer cells. Description: Anti-proliferative assay (cell-titre luminescent), DU145. The note with it: Homo sapiens, DU-145; DU145, 72 hours, luminescence. As for the experimental part: as §1

As for `COc1ccc(CCN2CCN(C(=O)/C=C/c3c(C)n(CCCN(C)C)c4ccccc34)CC2)cc1` [Compound 2013, (E)-3-(1-(3-(dimethylamino)propyl)-2-methyl-1H-indol-3-yl)-1-(4-(4-methoxyphenethyl)piperazin-1-yl)prop-2-en-1-one], the IC50 in experiment [1] worked out at 3.2 µM; in experiment [2], 6.8 µM; in experiment [3], 9.1 µM; in the experiment on SK-Mel-28 melanoma cells, 3.8 µM; with A549 lung (NSLC) cells, 6.1 µM; in experiment [4] it was 4.8 µM. The compound further returned an IC50 in experiment [5] of 10 µM.

In the case of `Cc1c(/C=C/C(=O)N2CCN(CCc3ccc4c(c3)OCO4)CC2)c2ccccc2n1CCCN(C)C` [Compound 2014, (E)-1-(4-(2-(benzo[d][1,3]dioxol-5-yl)ethyl)piperazin-1-yl)-3-(1-(3-(dimethylamino)propyl)-2-methyl-1H-indol-3-yl)prop-2-en-1-one], the IC50 in experiment [1] came to 3.7 µM; in experiment [2], 6.2 µM; in experiment [3] it was 9 µM; in the experiment with SK-Mel-28 melanoma cells, 3.2 µM; with A549 lung (NSLC) cells, 25.7 µM; in experiment [4], 6.5 µM. Besides, in experiment [5], 7.6 µM corresponded to half-maximal inhibition (IC50).

Consider `Cc1c(/C=C/C(=O)N2CCN(CCc3cccc(F)c3)CC2)c2ccccc2n1CCCN(C)C` [Compound 2015, (E)-3-(1-(3-(dimethylamino)propyl)-2-methyl-1H-indol-3-yl)-1-(4-(3-fluorophenethyl)piperazin-1-yl)prop-2-en-1-one], for which the IC50 in experiment [1] turned out to be 8.8 µM; in experiment [2] it was 21.1 µM; in experiment [3], 15.9 µM; with SK-Mel-28 melanoma cells it was 3.9 µM; with A549 lung (NSLC) cells, 14.1 µM; in experiment [4], 12.4 µM. This compound returned an IC50 in experiment [5] of 39.2 µM.

Consider `COc1cccc(CCN2CCN(C(=O)/C=C/c3c(C)n(CCCN(C)C)c4ccccc34)CC2)c1` [Compound 2016, (E)-3-(1-(3-(dimethylamino)propyl)-2-methyl-1H-indol-3-yl)-1-(4-(3-methoxyphenethyl)piperazin-1-yl)prop-2-en-1-one], for which the IC50 turned out to be 5 µM in experiment [1]; 10.8 µM in experiment [2]; 8.9 µM in experiment [3]; 4.1 µM in the experiment on SK-Mel-28 melanoma cells; 4.8 µM in the experiment with A549 lung (NSLC) cells; 5.8 µM in experiment [4]. Moreover, in experiment [5], the midpoint of inhibition, the IC50, lay at 5.4 µM.

Regarding `Cc1c(/C=C/C(=O)N2CCN(CCc3ccccc3)CC2)c2ccccc2n1CCCN(C)C` [Compound 2017, (E)-3-(1-(3-(dimethylamino)propyl)-2-methyl-1H-indol-3-yl)-1-(4-phenethylpiperazin-1-yl)prop-2-en-1-one], the IC50 in experiment [1] is 17.6 µM; in experiment [2] it was 18.5 µM; in experiment [3] it was 12.6 µM; in the experiment on SK-Mel-28 melanoma cells it was 8.7 µM; with A549 lung (NSLC) cells it was 13.6 µM; in experiment [4] it was 11.5 µM. In experiment [5], this compound showed an IC50 of 15.7 µM.

For the compound `COc1ccc2c(c1)c(/C=C/C(=O)N1CCN(CCc3ccc(F)cc3)CC1)c(C)n2CCCN(C)C` [Compound 2018, (E)-3-(1-(3-(dimethylamino)propyl)-5-methoxy-2-methyl-1H-indol-3-yl)-1-(4-(4-fluorophenethyl)piperazin-1-yl)prop-2-en-1-one], the IC50 in experiment [1] turned out to be 8.5 µM; in experiment [2], 5.7 µM; in experiment [3] it was 38 µM; in the experiment on SK-Mel-28 melanoma cells, 4.3 µM; in the experiment on A549 lung (NSLC) cells it was 15.9 µM; in experiment [4], 8 µM. Further, in experiment [5], inhibition was half-maximal at 12.1 µM (IC50).

As for `COc1ccc(CCN2CCN(C(=O)/C=C/c3c(C)n(CCCN(C)C)c4ccc(OC)cc34)CC2)cc1` [Compound 2019, (E)-3-(1-(3-(dimethylamino)propyl)-5-methoxy-2-methyl-1H-indol-3-yl)-1-(4-(4-methoxyphenethyl)piperazin-1-yl)prop-2-en-1-one], the IC50 in experiment [1] turned out to be 5.5 µM; in experiment [2] it was 5.1 µM; in experiment [3], 25.1 µM; in the experiment with SK-Mel-28 melanoma cells, 6.3 µM; in the experiment with A549 lung (NSLC) cells it was 10.6 µM; in experiment [4], 9.3 µM. In experiment [5], it took 14.8 µM to reach half-maximal inhibition (IC50).

Consider `COc1ccc2c(c1)c(/C=C/C(=O)N1CCN(CCc3ccc4c(c3)OCO4)CC1)c(C)n2CCCN(C)C` [Compound 2020, (E)-1-(4-(2-(benzo[d][1,3]dioxol-5-yl)ethyl)piperazin-1-yl)-3-(1-(3-(dimethylamino)propyl)-5-methoxy-2-methyl-1H-indol-3-yl)prop-2-en-1-one], for which the IC50 in experiment [1] was 3.9 µM; in experiment [2], 5.1 µM; in experiment [3], 4.5 µM; in the experiment on SK-Mel-28 melanoma cells, 3.5 µM; with A549 lung (NSLC) cells it was 3.5 µM; in experiment [4], 5.1 µM. Also, the IC50 in experiment [5] was 5.7 µM.

Consider `COc1ccc2c(c1)c(/C=C/C(=O)N1CCN(CCc3cccc(F)c3)CC1)c(C)n2CCCN(C)C` [Compound 2021, (E)-3-(1-(3-(dimethylamino)propyl)-5-methoxy-2-methyl-1H-indol-3-yl)-1-(4-(3-fluorophenethyl)piperazin-1-yl)prop-2-en-1-one], for which the IC50 in experiment [1] was 5.4 µM; in experiment [2] it was 4.8 µM; in experiment [3] it was 7.4 µM; with SK-Mel-28 melanoma cells, 4.3 µM; with A549 lung (NSLC) cells it was 5.4 µM; in experiment [4], 7.2 µM. Moreover, the IC50 in experiment [5] came out at 6.9 µM.

`COc1cccc(CCN2CCN(C(=O)/C=C/c3c(C)n(CCCN(C)C)c4ccc(OC)cc34)CC2)c1` [Compound 2022, (E)-3-(1-(3-(dimethylamino)propyl)-5-methoxy-2-methyl-1H-indol-3-yl)-1-(4-(3-methoxyphenethyl)piperazin-1-yl)prop-2-en-1-one]: the IC50 in experiment [1] worked out at 12.5 µM; in experiment [2], 11.3 µM; in experiment [3], 21.5 µM; in the experiment with SK-Mel-28 melanoma cells it was 17.2 µM; with A549 lung (NSLC) cells, 12.7 µM; in experiment [4] it was 7.6 µM. In experiment [5], this compound registered an IC50 of 22 µM.

`CCN(CC)CCCn1c(C)c(/C=C/C(=O)N2CCN(CCc3ccc(F)cc3)CC2)c2cc(OC)ccc21` [Compound 2023, (E)-3-(1-(3-(diethylamino)propyl)-5-methoxy-2-methyl-1H-indol-3-yl)-1-(4-(4-fluorophenethyl)piperazin-1-yl)prop-2-en-1-one]: the IC50 turned out to be 3.6 µM in experiment [1]; 4.6 µM in experiment [2]; 10.3 µM in experiment [3]; 2.7 µM in the experiment with SK-Mel-28 melanoma cells; 5.2 µM in the experiment on A549 lung (NSLC) cells; 5.6 µM in experiment [4]. The compound further came in with an IC50 in experiment [5] of 4.4 µM.

Take `CCN(CC)CCCn1c(C)c(/C=C/C(=O)N2CCN(CCc3ccc(OC)cc3)CC2)c2cc(OC)ccc21` [Compound 2024, (E)-3-(1-(3-(diethylamino)propyl)-5-methoxy-2-methyl-1H-indol-3-yl)-1-(4-(4-methoxyphenethyl)piperazin-1-yl)prop-2-en-1-one]: the IC50 in experiment [1] was 3.4 µM; in experiment [2] it was 4.1 µM; in experiment [3] it was 5.3 µM; in the experiment on SK-Mel-28 melanoma cells it was 3 µM; with A549 lung (NSLC) cells, 7.7 µM; in experiment [4], 5.7 µM. Besides, in experiment [5], half-maximal inhibition (IC50) required 8.4 µM.

As to `CCN(CC)CCCn1c(C)c(/C=C/C(=O)N2CCN(CCc3ccc4c(c3)OCO4)CC2)c2cc(OC)ccc21` [Compound 2025, (E)-1-(4-(2-(benzo[d][1,3]dioxol-5-yl)ethyl)piperazin-1-yl)-3-(1-(3-(diethylamino)propyl)-5-methoxy-2-methyl-1H-indol-3-yl)prop-2-en-1-one], the IC50 in experiment [1] is 4.1 µM; in experiment [2] it was 30 µM; in experiment [3], 16.5 µM; in the experiment with SK-Mel-28 melanoma cells it was 4.1 µM; with A549 lung (NSLC) cells, 4.7 µM; in experiment [4], 7.6 µM. Moreover, the midpoint of inhibition in experiment [5], the IC50, lay at 15.6 µM.

For `CCN(CC)CCCn1c(C)c(/C=C/C(=O)N2CCN(CCc3cccc(OC)c3)CC2)c2cc(OC)ccc21` [Compound 2027, (E)-3-(1-(3-(diethylamino)propyl)-5-methoxy-2-methyl-1H-indol-3-yl)-1-(4-(3-methoxyphenethyl)piperazin-1-yl)prop-2-en-1-one], the IC50 worked out at 8.2 µM in experiment [1]; 5.6 µM in experiment [2]; 12.3 µM in experiment [3]; 3.8 µM in the experiment with SK-Mel-28 melanoma cells; 23.5 µM in the experiment with A549 lung (NSLC) cells; 9.3 µM in experiment [4]. In experiment [5], this compound came in with an IC50 of 51.9 µM.

As to `CCN(CC)CCCn1c(C)c(/C=C/C(=O)N2CCN(CCc3ccccc3)CC2)c2cc(OC)ccc21` [Compound 2028, (E)-3-(1-(3-(diethylamino)propyl)-5-methoxy-2-methyl-1H-indol-3-yl)-1-(4-phenethylpiperazin-1-yl)prop-2-en-1-one], the IC50 stood at 2.7 µM in experiment [1]; 5.2 µM in experiment [2]; 4.1 µM in experiment [3]; 2 µM with SK-Mel-28 melanoma cells; 4.2 µM in the experiment with A549 lung (NSLC) cells; 5.3 µM in experiment [4]. Also, the IC50 in experiment [5] amounted to 5.3 µM.
